Patent US5591741A, “Fungicidal spiroheterocyclic derivatives” (American Cyanamid Company, priority 1993, dated 1997)

Experiments:
Cercospora beticola = assay: In vivo fungicidal activity, Sugar Beet Cercospora (SBC); conditions: Table VIa; host plants sprayed; solution of 400 ppm and dilutions; note: ranges in brackets are in %
Septoria nodorum = assay: In vivo fungicidal activity, Wheat Blotch (WSN); conditions: Table VIa; host plants sprayed; solution of 400 ppm and dilutions
Protocol: Test compounds are dissolved in acetone and diluted with deionized water containing about 0.05% TWEEN 20®, a polyoxyethylene sorbitan monolaurate surfactant manufactured by Atlas Chemical Industries, to give a concentration of 400 ppm. Subsequent dilutions are made with an 0.05% aqueous solution of TWEEN 20®.
Host plants are sprayed with test solution, dried and inoculated with fungi. When disease symptom development is optimal, the plants are rated for disease control according to the rating scale shown below. Each test contains inoculated treated plants, inoculated untreated plants and a reference standard. When more than one test is run, the data are averaged.

Botrytis cinerea [1] = assay: In vivo fungicidal activity, Pepper Botrytis (PB); conditions: Table VIa; host plants sprayed; solution of 400 ppm and dilutions; note: ranges in brackets are in %
Venturis inaequalis = assay: In vivo fungicidal activity, Apple Scab (AS); conditions: Table VIa; host plants sprayed; solution of 400 ppm and dilutions
[2] = system: Erysiphe graminis f. sp. tritici; assay: In vivo fungicidal activity, Wheat Powdery Mildew (WPM); conditions: Table VIa; host plants sprayed; solution of 400 ppm and dilutions
Alternaria solani [3] = assay: In vivo fungicidal activity, Tomato Early Blight (TEB); conditions: Table VIa; host plants sprayed; solution of 400 ppm and dilutions; note: ranges in brackets are in %
Plasmopara viticola [4] = assay: In vivo fungicidal activity, Grape Downy Mildew (GDM); conditions: Table VIa; host plants sprayed; solution of 400 ppm and dilutions; note: ranges in brackets are in %
Pyricularia oryzae [5] = format: in vivo; conditions: Table VIa; host plants sprayed; solution of 400 ppm and dilutions
Venturia inaequalis = assay: Activity against apple scab in-vitro (VII); format: cell-based; conditions: 10 ppm, 10 days, 20° C., mycelial growth
Summary of the method: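 Compound in acetone was tested at 10 ppm final in half-strength Potato Dextrose Broth inoculated with V. inaequalis mycelial fragments and spores at 5×10^4 propagules/ml. After 10 days at 20° C, mycelial growth was rated against untreated or diluent controls.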

Phytophthora infestans = format: in vivo; conditions: tomato, direct protectant foliar spray
Leptosphaeria nodorum = assay: Activity against wheat leafspot (LN); format: in vivo; conditions: direct therapeutic foliar spray, 600 ppm, 6-8 days
Summary of the method: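 Wheat cv Norman at single-leaf stage spray-inoculated with 1.5×10^6 conidia/ml, held 24 h at high humidity, then sprayed therapeutically with test compound at 600 ppm. Kept 6-8 days at 22° C, 70% humidity; lesion density per leaf rated against untreated or diluent-sprayed controls.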

[6] = system: Erysiphe graminis f.sp. hordei; assay: Direct protectant activity against barley powdery mildew (EGP); format: in vivo; conditions: direct protectant foliar spray, 8 days
Summary of the method: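 Barley seedlings (cv Golden Promise, single-leaf stage) were foliar-sprayed, held 24 h at 18 °C/40% RH, then dusted with mildew conidia. After 8 days at 18 °C/40% RH, sporulating leaf area was scored as a rating against untreated or diluent-sprayed controls.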

[7] = system: Erysiphe graminis f.sp. hordei; assay: Activity against barley powdery mildew, direct therapeutic (EGT); format: in vivo; conditions: direct therapeutic foliar spray, 600 ppm, up to 7 days
Summary of the method: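 Barley seedlings (cv. Golden Promise, single-leaf stage) were dusted with mildew conidia one day before a therapeutic foliar spray of 600 ppm compound. Plants were kept at 18 °C and 40% humidity for up to 7 days, and sporulating leaf area was rated against untreated or diluent-sprayed controls.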

Plasmopara viticola [8] = assay: Antisporulant activity against vine downy mildew (PVA); format: in vivo; conditions: vine leaves, antisporulant foliar spray, 600 ppm, 750 l/ha
Summary of the method: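 Cabernet Sauvignon vines (~8 cm) inoculated on lower leaf surfaces with 5×10^4 zoosporangia/ml, held 24 h at 21° C high humidity then 24 h glasshouse. Infected leaves sprayed underside with 600 ppm compound in 1:1 water/acetone, 0.04% Tween 20, 750 l/ha; 96 h glasshouse, 24 h humidity. Sporulating leaf area rated versus control.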

Rhizoctonia solani = assay: Activity against Rhizoctonia in-vitro (RSI); format: cell-based; conditions: 10 ppm, 10 days, 20° C., mycelial growth
Summary of the method: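 R. solani mycelial fragments (5×10^4/ml) in half-strength Potato Dextrose Broth with compound added from acetone to 10 ppm final. Mycelial growth assessed after 10 days at 20° C, rated against untreated or diluent control.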

Pyricularia oryzae [9] = format: in vivo; conditions: rice seedlings, direct therapeutic foliar spray, 600 ppm, 4-5 days
Alternaria solani [10] = assay: Activity against tomato early blight (AS); format: in vivo; conditions: Table VI; tomato seedlings, contact prophylactic foliar spray, 4 days
Summary of the method: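 Foliar contact prophylactic spray on tomato seedlings (cv Outdoor Girl, second true leaf expanded) in acetone/water 50:50 with 0.04% Tween 20; 24 h at 20° C, 40% R.H., then inoculation with 10^4 spores/ml A. solani conidia. Kept moist at 21° C; lesion cover rated 4 days post-inoculation against untreated or diluent-sprayed controls.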

Botrytis cinerea [11] = assay: Direct protectant activity against broad bean grey mould (BCB); format: in vivo; conditions: direct protectant foliar spray, 600 ppm, 4 days
Summary of the method: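 Broad bean plants (cv The Sutton, two leaf pairs) sprayed on upper leaf surfaces at 600 ppm, then inoculated 24 h later with 10^6 conidia/ml. Kept 4 days at 22 °C, high humidity; disease control rated from % leaf area with lesions against untreated or diluent controls.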

[12] = system: Pseudocercosporella herpotrichoides; assay: Activity against wheat eyespot in-vitro (PHI); format: cell-based; conditions: 10 ppm, 10 days, 20° C., mycelial growth
Summary of the method: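 P. herpotrichoides mycelial fragments (5×10^4/ml) grown in half-strength PDB with compound at 10 ppm final, added from acetone. Incubated 10 days at 20 °C; mycelial growth rated against untreated or diluent controls.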

Structure (SMILES)	disease control rating SBC (Cercospora beticola)	disease control rating WSN (Septoria nodorum)	disease control rating PB (Botrytis cinerea [1])	disease control rating AS (Apple Scab) (Venturis inaequalis)	disease control rating WPM [2]	disease control rating TEB (Alternaria solani [3])	disease control rating GDM (Plasmopara viticola [4])	disease control rating RB (Pyricularia oryzae [5])	disease control rating VII (Venturia inaequalis)	disease control rating PIP (Phytophthora infestans)	disease control rating LN (Leptosphaeria nodorum)	disease control rating EGP [6]	disease control rating EGT [7]	disease control rating PVA (Plasmopara viticola [8])	disease control rating RSI (Rhizoctonia solani)	disease control rating PO (Pyricularia oryzae [9])	disease control rating AS (Alternaria solani [10])	disease control rating BCB (Botrytis cinerea [11])	disease control rating PHI [12]
CN(CC1COC2(CCC(C(C)(C)C)CC2)C1)C1CCCCC1 (stereo not shown) [Compound 187]	5 (60-74)	7 (90-95)	7 (90-95)	4 (45-59)	9 (100)	6 (75-89)	5 (60-74)	0 (0)											
CCN(CC1COC2(CCC(C(C)(C)C)CC2)C1)C1CCCCC1 (stereo not shown) [Compound 188]	4 (45-59)	6 (75-89)	5 (60-74)	5 (60-74)	8 (96-99)	0 (0)	0 (0)	0 (0)											
CC(C)(C)C1CCC2(CC1)CC(CCNC1CCCCC1)CO2 (stereo not shown) [Compound 189, 8-t-Butyl-3-cyclohexylaminoethyl-1-oxaspiro(4,5)decane]									1 (about 50-80% disease control)	1 (about 50-80% disease control)	0 (less than 50% disease control)	2 (greater than 80% disease control)	2 (greater than 80% disease control)	0 (less than 50% disease control)	0 (less than 50% disease control)	0 (less than 50% disease control)	0 (less than 50% disease control)	0 (less than 50% disease control)	0 (less than 50% disease control)
CC(C)(C)C1CCC2(CC1)CC(CCN)CO2.Cl (stereo not shown) [Compound 190, 8-t-butyl-3-aminoethyl-1-oxaspiro(4,5)decane hydrochloride]									0 (less than 50% disease control)	2 (greater than 80% disease control)	0 (less than 50% disease control)	1 (about 50-80% disease control)	0 (less than 50% disease control)	1 (about 50-80% disease control)	0 (less than 50% disease control)	0 (less than 50% disease control)	0 (less than 50% disease control)	0 (less than 50% disease control)	0 (less than 50% disease control)
CN(C)CCC1COC2(CCC(C(C)(C)C)CC2)C1 (stereo not shown) [Compound 191]									0 (less than 50% disease control)	0 (less than 50% disease control)	0 (less than 50% disease control)	2 (greater than 80% disease control)	0 (less than 50% disease control)	0 (less than 50% disease control)	0 (less than 50% disease control)	0 (less than 50% disease control)	0 (less than 50% disease control)	0 (less than 50% disease control)	0 (less than 50% disease control)
CC1CCCC(NCCC2COC3(CCC(C(C)(C)C)CC3)C2)C1 (stereo not shown) [Compound 192]	7 (90-95)	7 (90-95)	8 (96-99)	7 (90-95)	7 (90-95)	4 (45-59)	6 (75-89)	0 (0)											
CCCC(CCC)NCCC1COC2(CCC(C(C)(C)C)CC2)C1 (stereo not shown) [Compound 193]	6 (75-89)	3 (30-44)	7 (90-95)	6 (75-89)	8 (96-99)	2 (15-29)	8 (96-99)	0 (0)											
CCCCCC(C)NCCC1COC2(CCC(C(C)(C)C)CC2)C1 (stereo not shown) [Compound 194]	8 (96-99)	7 (90-95)	4 (45-59)	6 (75-89)	7 (90-95)	3 (30-44)	7 (90-95)	0 (0)											
CC(C)(C)C1CCC2(CC1)CC(CCNC1CCCCCC1)CO2 (stereo not shown) [Compound 195]	7 (90-95)	7 (90-95)	5 (60-74)	6 (75-89)	7 (90-95)	0 (0)	5 (60-74)	7 (90-95)											
CCCCN(CCCC)CCC1COC2(CCC(C(C)(C)C)CC2)C1 (stereo not shown) [Compound 196]	8 (96-99)	7 (90-95)	5 (60-74)	5 (60-74)	9 (100)	0 (0)	5 (60-74)	6 (75-89)											
CCCCC(CC)NCCC1COC2(CCC(C(C)(C)C)CC2)C1 (stereo not shown) [Compound 197]	7 (90-95)	7 (90-95)	8 (96-99)	5 (60-74)	8 (96-99)	0 (0)	7 (90-95)	0 (0)											
